Measurements reported in patent US9499550B2 (BRISTOL-MYERS SQUIBB COMPANY, priority 2012, dated 2016).
Like-named read-outs stand apart in the source and are kept apart here.

Assays:
[1] = tested on: HCV genotype 1b (Con1) replicon in HUH-7 cells; test: HCV replicon luciferase reporter assay, genotype 1b; assay type: cell-based; details: Hepatitis C virus, Huh-7, 72 h, HCV genotype 1b replicon luciferase, 3 days incubation
Procedure, shortened: (§1)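 Replicon inhibition for both genotypes was measured as Renilla luciferase signal (EnduRen, 7.5 μM final, 2 h) after 3-day, 37° C exposure of replicon-bearing HUH-7 cells in 4% FCS DMEM, 0.5% DMSO. The 1b construct carries S1179I; the 1a H77 construct carries P1496L and S2204I. Twenty-point, 3-fold dilutions were fitted four-parametrically for EC50, and CC50 was taken from multiplexed Cell Titer-Blue.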

[2] = tested on: HCV genotype 1a (H77 strain) replicon in HUH-7 cells; test: HCV replicon luciferase reporter assay, genotype 1a; assay type: cell-based; details: Hepatitis C virus, Huh-7, 72 h, HCV genotype 1a replicon luciferase, 3 days incubation
Procedure, shortened: as §1

[3] = GETYPE1B, read-out: LE_1b (EC50, range)
[4] = GETYPE1A, read-out: LE_1a (EC50, range)

| Structure (SMILES) | EC50 ([1]; read-out: LE_1b (EC50, range)) [nM] | EC50 ([2]; read-out: LE_1a (EC50, range)) [nM] | EC50 [1, 3] [nM] | EC50 [2, 4] [nM] | EC50 ([1]; read-out: LE_1b (EC50)) [nM] | EC50 ([2]; read-out: LE_1a (EC50)) [nM] |
| --- | --- | --- | --- | --- | --- | --- |
| COc1ccc2c(O[C@@H]3C[C@H]4C(=O)N[C@]5(C(=O)NS(=O)(=O)C6(C)CC6)C[C@H]5/C=C\CC[C@@H](C)C[C@@H](C)[C@H](NC(=O)OC(C)(C)C)C(=O)N4C3)ncc(F)c2c1 [Compound 4374, tert-butyl ((2R,6S,7R,9R,13aS,14aR,16aS,Z)-2-((4-fluoro-6-methoxyisoquinolin-1-yl)oxy)-7,9-dimethyl-14a-(((1-methylcyclopropyl)sulfonyl)carbamoyl)-5,16-dioxo-1,2,3,5,6,7,8,9,10,11,13a,14,14a,15,16,16a-hexadecahydrocyclopropa[e]pyrrolo[1,2-a][1,4]diazacyclopentadecin-6-yl)carbamate] | 0.1 to 0.5 | 1.01 to 5 |  |  |  |  |
| COc1ccc2c(Cl)ncc(O[C@@H]3C[C@H]4C(=O)N[C@]5(C(=O)NS(=O)(=O)C6(C)CC6)C[C@H]5/C=C\CC[C@@H](C)C[C@@H](C)[C@H](NC(=O)OC(C)(C)C)C(=O)N4C3)c2c1 [Compound 4375, tert-butyl ((2R,6S,7R,9R,13aS,14aR,16aS,Z)-2-((1-chloro-6-methoxyisoquinolin-4-yl)oxy)-7,9-dimethyl-14a-(((1-methylcyclopropyl)sulfonyl)carbamoyl)-5,16-dioxo-1,2,3,5,6,7,8,9,10,11,13a,14,14a,15,16,16a-hexadecahydrocyclopropa[e]pyrrolo[1,2-a][1,4]diazacyclopentadecin-6-yl)carbamate] | 0.51 to 1 | 1.01 to 5 |  |  |  |  |
| COc1ccc2nc(OC)c(O[C@@H]3C[C@H]4C(=O)N[C@]5(C(=O)NS(=O)(=O)C6(CF)CC6)C[C@H]5/C=C\CC[C@@H](C)C[C@@H](C)[C@H](NC(=O)OC(C)(C)C)C(=O)N4C3)cc2c1 [Compound 4376, tert-butyl ((2R,6S,7R,9R,13aS,14aR,16aS,Z)-2-((2,6-dimethoxyquinolin-3-yl)oxy)-14a-(((1-(fluoromethyl)cyclopropyl)sulfonyl)carbamoyl)-7,9-dimethyl-5,16-dioxo-1,2,3,5,6,7,8,9,10,11,13a,14,14a,15,16,16a-hexadecahydrocyclopropa[e]pyrrolo[1,2-a][1,4]diazacyclopentadecin-6-yl)carbamate] | 0.1 to 0.5 | 1.01 to 5 |  |  |  |  |
| CC[C@@H]1C[C@H](C)CC/C=C\[C@@H]2C[C@@]2(C(=O)NS(=O)(=O)C2(C)CC2)NC(=O)[C@@H]2C[C@@H](Oc3cc4cc(OC)ccc4nc3OC)CN2C(=O)[C@H]1NC(=O)OC(C)(C)C [Compound 4377, tert-butyl ((2R,6S,7R,9R,13aS,14aR,16aS,Z)-2-((2,6-dimethoxyquinolin-3-yl)oxy)-7-ethyl-9-methyl-14a-(((1-methylcyclopropyl)sulfonyl)carbamoyl)-5,16-dioxo-1,2,3,5,6,7,8,9,10,11,13a,14,14a,15,16,16a-hexadecahydrocyclopropa[e]pyrrolo[1,2-a][1,4]diazacyclopentadecin-6-yl)carbamate] | 0.1 to 0.5 | 0.51 to 1 |  |  |  |  |
| COc1ccc2c(O[C@@H]3C[C@H]4C(=O)N[C@]5(C(=O)NS(=O)(=O)C6(CF)CC6)C[C@H]5/C=C\CC[C@@H](C)C[C@@H](C)[C@H](NC(=O)OC(C)(C)C(F)(F)F)C(=O)N4C3)ncc(F)c2c1 [Compound 4378] |  |  | 0.51 to 1 | 1.01 to 5 |  |  |
| CC[C@@H]1C[C@H](C)CC/C=C\[C@@H]2C[C@@]2(C(=O)NS(=O)(=O)C2(C)CC2)NC(=O)[C@@H]2C[C@@H](Oc3ncc(F)c4cc(OC)ccc34)CN2C(=O)[C@H]1NC(=O)OC(C)(C)C(F)(F)F [Compound 4379] |  |  | 0.51 to 1 | 1.01 to 5 |  |  |
| COc1ccc2c(Cl)ncc(O[C@@H]3C[C@H]4C(=O)N[C@]5(C(=O)NS(=O)(=O)C6(CF)CC6)C[C@H]5/C=C\CC[C@@H](C)C[C@@H](C)[C@H](NC(=O)OC(C)(C)C)C(=O)N4C3)c2c1 [Compound 4380] | 1.01 to 5 | 1.01 to 5 |  |  |  |  |
| CC[C@@H]1C[C@H](C)CC/C=C\[C@@H]2C[C@@]2(C(=O)NS(=O)(=O)C2(C)CC2)NC(=O)[C@@H]2C[C@@H](Oc3ncc(Cl)c4ccc(OC)cc34)CN2C(=O)[C@H]1NC(=O)OC(C)(C)C [Compound 4381] | 0.51 to 1 | 1.01 to 5 |  |  |  |  |
| COc1ccc2c(O[C@@H]3C[C@H]4C(=O)N[C@]5(C(=O)NS(=O)(=O)C6(CF)CC6)C[C@H]5/C=C\CC[C@@H](C)C[C@@H](C)[C@H](NC(=O)OC(C)(C)C)C(=O)N4C3)ncc(F)c2c1 [Compound 4382, tert-butyl ((2R,6S,7R,9R,13aS,14aR,16aS,Z)-2-((4-fluoro-6-methoxyisoquinolin-1-yl)oxy)-14a-(((1-(fluoromethyl)cyclopropyl)sulfonyl)carbamoyl)-7,9-dimethyl-5,16-dioxo-1,2,3,5,6,7,8,9,10,11,13a,14,14a,15,16,16a-hexadecahydrocyclopropa[e]pyrrolo[1,2-a][1,4]diazacyclopentadecin-6-yl)carbamate] | 0.51 to 1 | 1.01 to 5 |  |  |  |  |
| CC[C@@H]1C[C@H](C)CC/C=C\[C@@H]2C[C@@]2(C(=O)NS(=O)(=O)C2(C)CC2)NC(=O)[C@@H]2C[C@@H](Oc3ncc(F)c4cc(OC)ccc34)CN2C(=O)[C@H]1NC(=O)OC(C)(C)C [Compound 4383, tert-butyl ((2R,6S,7R,9R,13aS,14aR,16aS,Z)-7-ethyl-2-((4-fluoro-6-methoxyisoquinolin-1-yl)oxy)-9-methyl-14a-(((1-methylcyclopropyl)sulfonyl)carbamoyl)-5,16-dioxo-1,2,3,5,6,7,8,9,10,11,13a,14,14a,15,16,16a-hexadecahydrocyclopropa[e]pyrrolo[1,2-a][1,4]diazacyclopentadecin-6-yl)carbamate] | 0.51 to 1 | 1.01 to 5 |  |  |  |  |
| COc1ccc(-c2nc(O[C@@H]3C[C@H]4C(=O)N[C@]5(C(=O)NS(=O)(=O)C6CC6)C[C@H]5/C=C\CC[C@H](C)C[C@@H](C)[C@H](NC(=O)OC(C)(C)C)C(=O)N4C3)c3ccc(OC)cc3n2)cc1 [Compound 5001, tert-butyl ((2R,6S,7R,9S,13aS,14aR,16aS,Z)-14a-((cyclopropylsulfonyl)carbamoyl)-2-((7-methoxy-2-(4-methoxyphenyl)quinazolin-4-yl)oxy)-7,9-dimethyl-5,16-dioxo-1,2,3,5,6,7,8,9,10,11,13a,14,14a,15,16,16a-hexadecahydrocyclopropa[e]pyrrolo[1,2-a][1,4]diazacyclopentadecin-6-yl)carbamate] | < 5.46 | < 5.46 |  |  |  |  |
| COc1ccc(-c2nc(O[C@@H]3C[C@H]4C(=O)N[C@]5(C(=O)NS(=O)(=O)C6CC6)C[C@H]5/C=C\CC[C@@H](C)C[C@@H](C)[C@H](NC(=O)OC(C)(C)C)C(=O)N4C3)c3ccc(OC)cc3n2)cc1 [Compound 5002, tert-butyl ((2R,6S,7R,9R,13aS,14aR,16aS,Z)-14a-((cyclopropylsulfonyl)carbamoyl)-2-((7-methoxy-2-(4-methoxyphenyl)quinazolin-4-yl)oxy)-7,9-dimethyl-5,16-dioxo-1,2,3,5,6,7,8,9,10,11,13a,14,14a,15,16,16a-hexadecahydrocyclopropa[e]pyrrolo[1,2-a][1,4]diazacyclopentadecin-6-yl)carbamate] | < 5.46 | < 5.46 |  |  |  |  |
| COc1nnc(O[C@@H]2C[C@H]3C(=O)N[C@]4(C(=O)NS(=O)(=O)C5CC5)C[C@H]4/C=C\CC[C@H](C)C[C@@H](C)[C@H](NC(=O)OC(C)(C)C)C(=O)N3C2)c2ccccc12 [Compound 5003, tert-butyl ((2R,6S,7R,9S,13aS,14aR,16aS,Z)-14a-((cyclopropylsulfonyl)carbamoyl)-2-((4-methoxyphthalazin-1-yl)oxy)-7,9-dimethyl-5,16-dioxo-1,2,3,5,6,7,8,9,10,11,13a,14,14a,15,16,16a-hexadecahydrocyclopropa[e]pyrrolo[1,2-a][1,4]diazacyclopentadecin-6-yl)carbamate] | < 5.46 | 4.82 to 103 |  |  | 1.96 | 5.46 |
| COc1nnc(O[C@@H]2C[C@H]3C(=O)N[C@]4(C(=O)NS(=O)(=O)C5CC5)C[C@H]4/C=C\CC[C@@H](C)C[C@@H](C)[C@H](NC(=O)OC(C)(C)C)C(=O)N3C2)c2ccccc12 [Compound 5004, tert-butyl ((2R,6S,7R,9R,13aS,14aR,16aS,Z)-14a-((cyclopropylsulfonyl)carbamoyl)-2-((4-methoxyphthalazin-1-yl)oxy)-7,9-dimethyl-5,16-dioxo-1,2,3,5,6,7,8,9,10,11,13a,14,14a,15,16,16a-hexadecahydrocyclopropa[e]pyrrolo[1,2-a][1,4]diazacyclopentadecin-6-yl)carbamate] | < 5.46 | < 5.46 |  |  |  |  |
| COc1nnc(O[C@@H]2C[C@H]3C(=O)N[C@]4(C(=O)NS(=O)(=O)C5CC5)C[C@H]4/C=C\CC[C@H](C)C[C@@H](C)[C@H](NC(=O)OC(C)(C)C(F)(F)F)C(=O)N3C2)c2ccccc12 [Compound 5005, 1,1,1-trifluoro-2-methylpropan-2-yl((2R,6S,7R,9S,13aS,14aR,16aS,Z)-14a-((cyclopropylsulfonyl)carbamoyl)-2-((4-methoxyphthalazin-1-yl)oxy)-7,9-dimethyl-5,16-dioxo-1,2,3,5,6,7,8,9,10,11,13a,14,14a,15,16,16a-hexadecahydrocyclopropa[e]pyrrolo[1,2-a][1,4]diazacyclopentadecin-6-yl)carbamate] | < 5.46 | < 5.46 |  |  |  |  |
